23 molecules from ChEMBL document CHEMBL3751761, “Analogues of boswellic acids as inhibitors of pro-inflammatory cytokines TNF-α and IL-6” (Bioorg Med Chem Lett, 2016) can be followed below.

The subject of series [1] is Mus musculus. Put plainly: Anti-inflammatory activity in BALB/c mouse assessed as inhibition of LPS-induced TNFalpha expression at 10 mg/kg, po pre-treated for 1 hr followed by LPS administration measured 2.5 hrs after LPS challenge by ELISA. The class given is functional. For orientation: An ELISA detects its analyte on a solid surface through an enzyme-linked reagent.

The test system of series [2] is PBMC. Put plainly: Anti-inflammatory activity in human PBMC assessed as inhibition of LPS-induced TNFalpha expression at 10 uM after 5 hrs. In kind it is functional.
Series [3] has as its system PBMC. The series is described as follows: Anti-inflammatory activity in human PBMC assessed as inhibition of LPS-induced IL-6 expression at 10 uM after 5 hrs. The class given is functional.
In series [4] the test system is Mus musculus. Put plainly: Anti-inflammatory activity in BALB/c mouse assessed as inhibition of LPS-induced IL-6 expression at 10 mg/kg, po pre-treated for 1 hr followed by LPS administration measured 2.5 hrs after LPS challenge by ELISA. In kind it is functional.
Series [5] can be described thus: Cytotoxicity against human FR2 cells assessed as cell viability at 10 uM after 48 hrs by MTT assay. The class given is cell-based. Conditions: read-out: Activity. On the technique in general: Tetrazolium assays rely on reduction of a dye to a coloured formazan, in cell work by metabolically active cells.

The inhibition in vivo is the share of the control response that was lost under treatment. A word on the inhibition: it is the share of the control response that was lost under treatment. As to `CCCC(=O)O[C@H]1CC[C@@]2(C)[C@@H](CC[C@]3(C)[C@@H]2C(=O)C=C2[C@@H]4[C@@H](C)[C@H](C)CC[C@]4(C)CC[C@]23C)[C@@]1(C)C(=O)O`, the results for the inhibition in vivo at 10 mg/kg in the series on Mus musculus [1] and with Mus musculus [4] were 37.8% and 48.5%, respectively. Also, the results for the inhibition at 10 µM with PBMC [2] and in the series on PBMC [3] were 44.2% and 52.3%, respectively. Further, in series [5], the viability at 48 h, 10 µM is 80%.
In the same order, the values of `CC(=O)O[C@@H]1CC[C@]2(C)[C@H]3C(=O)C=C4[C@@H]5[C@@H](C)[C@H](C)CC[C@]5(C)CC[C@@]4(C)[C@]3(C)CC[C@H]2[C@@]1(C)N` are 53.3%, 39.1%, 78.9%, 58.4% and 97%.
In the case of `CCCC(=O)O[C@@H]1CC[C@@]2(C)[C@@H](CC[C@]3(C)[C@@H]2CC=C2[C@@H]4[C@@H](C)[C@H](C)CC[C@]4(C)CC[C@]23C)[C@@]1(C)C(=O)O`, the inhibition at 10 µM with PBMC [2] came out at 41.4%; with PBMC [3], 34.8%.
For the molecule `CC(=O)O[C@@H]1CC[C@@]2(C)[C@@H](CC[C@]3(C)[C@@H]2CC=C2[C@@H]4[C@@H](C)[C@H](C)CC[C@]4(C)CC[C@]23C)[C@@]1(C)C(=O)O`, the inhibition at 10 µM in the series on PBMC [2] turned out to be 43.8%.
Turning to `CCCC(=O)O[C@@H]1CC[C@@]2(C)[C@@H](CC[C@]3(C)[C@@H]2C(=O)C=C2[C@@H]4[C@@H](C)[C@H](C)CC[C@]4(C)CC[C@]23C)[C@@]1(C)C(=O)O`, the inhibition at 10 µM was found to be 34.1% in the series with PBMC [2] and 22.5% in the series on PBMC [3].
Turning to `CC(=O)O[C@@H]1CC[C@@]2(C)[C@@H](CC[C@]3(C)[C@@H]2CC=C2[C@@H]4[C@@H](C)[C@H](C)CC[C@]4(C)CC[C@]23C)[C@@]1(C)N=C=O`, the inhibition at 10 µM in the series on PBMC [2] came to 40.6%.
Turning to `CCCCCC(=O)O[C@@H]1CC[C@@]2(C)[C@@H](CC[C@]3(C)[C@@H]2C(=O)C=C2[C@@H]4[C@@H](C)[C@H](C)CC[C@]4(C)CC[C@]23C)[C@@]1(C)C(=O)O`, the inhibition at 10 µM amounted to 18.3% with PBMC [2] and 13.8% with PBMC [3].
For the molecule `CC(=O)O[C@@H]1CC[C@@]2(C)[C@@H](CC[C@]3(C)[C@@H]2C(=O)C=C2[C@@H]4[C@@H](C)[C@H](C)CC[C@]4(C)CC[C@]23C)[C@@]1(C)N=C=O`, the inhibition in vivo at 10 mg/kg in the series with Mus musculus [1] stood at 26.4%; with Mus musculus [4] it was 40.2%. For the same molecule, the inhibition at 10 µM with PBMC [2] was found to be 40.6%; with PBMC [3], 69.8%. Also, the viability at 48 h, 10 µM in series [5] was found to be 91%.
In the case of `CC(=O)O[C@H]1CC[C@@]2(C)[C@@H](CC[C@]3(C)[C@@H]2C(=O)C=C2[C@@H]4[C@@H](C)[C@H](C)CC[C@]4(C)CC[C@]23C)[C@@]1(C)C(=O)O`, the inhibition at 10 µM stood at 39.6% in the series on PBMC [2] and 44.7% in the series on PBMC [3].
On to `CC(=O)O[C@@H]1CC[C@]2(C)[C@H]3CC=C4[C@@H]5[C@@H](C)[C@H](C)CC[C@]5(C)CC[C@@]4(C)[C@]3(C)CC[C@H]2[C@@]1(C)N`, for which the inhibition in vivo at 10 mg/kg in the series with Mus musculus [1] worked out at 39.5%; with Mus musculus [4], 41.4%. Also, the figures for the inhibition at 10 µM in the series on PBMC [2] and in the series with PBMC [3] were 68.3% and 63.3%, respectively. Moreover, the viability at 48 h, 10 µM in series [5] came out at 100%.
In the same order, the values of `CCCCCC(=O)O[C@H]1CC[C@@]2(C)[C@@H](CC[C@]3(C)[C@@H]2CC=C2[C@@H]4[C@@H](C)[C@H](C)CC[C@]4(C)CC[C@]23C)[C@@]1(C)C(=O)O` are 59.3%, 41.6%, 42.5%, 53.4% and 97%.
With `CCC(=O)O[C@@H]1CC[C@@]2(C)[C@@H](CC[C@]3(C)[C@@H]2C(=O)C=C2[C@@H]4[C@@H](C)[C@H](C)CC[C@]4(C)CC[C@]23C)[C@@]1(C)C(=O)O`, the values for the inhibition at 10 µM in the series on PBMC [2] and in the series on PBMC [3] were 38.9% and 36.6%, respectively.
For `CCCCCC(=O)O[C@@H]1CC[C@@]2(C)[C@@H](CC[C@]3(C)[C@@H]2CC=C2[C@@H]4[C@@H](C)[C@H](C)CC[C@]4(C)CC[C@]23C)[C@@]1(C)C(=O)O`, the inhibition in vivo at 10 mg/kg came to 42.5% with Mus musculus [1] and 57.5% in the series on Mus musculus [4]. Further, the inhibition at 10 µM with PBMC [2] was 72.3%; with PBMC [3], 50.5%. Also, in series [5], the viability at 48 h, 10 µM was 89%.
Take `CCC(=O)O[C@@H]1CC[C@@]2(C)[C@@H](CC[C@]3(C)[C@@H]2CC=C2[C@@H]4[C@@H](C)[C@H](C)CC[C@]4(C)CC[C@]23C)[C@@]1(C)C(=O)O`: the inhibition at 10 µM in the series with PBMC [2] came to 40%; with PBMC [3], 43.5%.
Turning to `CCCCCC(=O)O[C@H]1CC[C@@]2(C)[C@@H](CC[C@]3(C)[C@@H]2C(=O)C=C2[C@@H]4[C@@H](C)[C@H](C)CC[C@]4(C)CC[C@]23C)[C@@]1(C)C(=O)O`, the inhibition in vivo at 10 mg/kg with Mus musculus [1] is 30.7%; with Mus musculus [4] it was 44.1%. Besides, the inhibition at 10 µM was determined as 44.7% in the series with PBMC [2] and 64% with PBMC [3]. Moreover, the viability at 48 h, 10 µM in series [5] turned out to be 85%.
In the same order, the values of `C[C@H]1[C@H](C)CC[C@]2(C)CC[C@]3(C)C(=CC(=O)[C@@H]4[C@@]5(C)CC[C@@H](O)[C@](C)(C(=O)O)[C@@H]5CC[C@]43C)[C@H]12` [11-KETO BOSWELLIC ACID] are 58.7%, 61.6%, 56.3%, 59.6% and 86%.
The matching figures for `CCCC(=O)O[C@H]1CC[C@@]2(C)[C@@H](CC[C@]3(C)[C@@H]2CC=C2[C@@H]4[C@@H](C)[C@H](C)CC[C@]4(C)CC[C@]23C)[C@@]1(C)C(=O)O`: 58.7%, 51.6%, 68.9%, 39.5% and 83%.
Regarding `C[C@H]1[C@H](C)CC[C@]2(C)CC[C@]3(C)C(=CC[C@@H]4[C@@]5(C)CC[C@H](O)[C@](C)(C(=O)O)[C@@H]5CC[C@]43C)[C@H]12`, the values for the inhibition at 10 µM with PBMC [2] and in the series on PBMC [3] were 41.4% and 42.3%, respectively.
Regarding `CC(=O)O[C@H]1CC[C@@]2(C)[C@@H](CC[C@]3(C)[C@@H]2CC=C2[C@@H]4[C@@H](C)[C@H](C)CC[C@]4(C)CC[C@]23C)[C@@]1(C)C(=O)O`, the inhibition at 10 µM was found to be 57.9% in the series with PBMC [2] and 51.1% in the series on PBMC [3]. Also, in the series on Mus musculus [4], the inhibition in vivo at 10 mg/kg came to 19.5%. Moreover, the viability at 48 h, 10 µM in series [5] stood at 99%.
As for `C[C@H]1[C@H](C)CC[C@]2(C)CC[C@]3(C)C(=CC[C@@H]4[C@@]5(C)CC[C@@H](O)[C@](C)(C(=O)O)[C@@H]5CC[C@]43C)[C@H]12` [BOSWELLIC ACID], the inhibition in vivo at 10 mg/kg amounted to 50.8% in the series on Mus musculus [1] and 53% in the series with Mus musculus [4]. Further, the inhibition at 10 µM in the series with PBMC [2] worked out at 44.5%; in the series on PBMC [3] it was 48.6%. Further, the viability at 48 h, 10 µM in series [5] was 73%.
For the molecule `COc1ccc(C2CNC(=O)C2)cc1OC1CCCC1` (centres undefined) [ROLIPRAM], the inhibition in vivo at 10 mg/kg came to 48.1% in the series on Mus musculus [1] and 36.9% in the series on Mus musculus [4]. For the same molecule, the inhibition at 10 µM stood at 34.6% with PBMC [2] and 26.2% in the series on PBMC [3].
With `C[C@H]1[C@H](C)CC[C@]2(C)CC[C@]3(C)C(=CC(=O)[C@@H]4[C@@]5(C)CC[C@H](O)[C@](C)(C(=O)O)[C@@H]5CC[C@]43C)[C@H]12`, the inhibition in vivo at 10 mg/kg was 71.3% with Mus musculus [1] and 28.9% in the series with Mus musculus [4]. Moreover, the inhibition at 10 µM worked out at 53.5% in the series with PBMC [2] and 49.6% with PBMC [3]. The viability at 48 h, 10 µM in series [5] worked out at 100%.
For `CC(=O)O[C@@H]1CC[C@@]2(C)[C@@H](CC[C@]3(C)[C@@H]2C(=O)C=C2[C@@H]4[C@@H](C)[C@H](C)CC[C@]4(C)CC[C@]23C)[C@@]1(C)C(=O)O` [AKBA], the inhibition in vivo at 10 mg/kg in the series with Mus musculus [1] is 70.7%; with Mus musculus [4], 54.3%. In addition, the figures for the inhibition at 10 µM in the series on PBMC [2] and in the series with PBMC [3] were 55% and 53.9%, respectively. Besides, the viability at 48 h, 10 µM in series [5] came out at 100%.
